Assay results reported in ChEMBL document CHEMBL3044966, “Photosynthesis limitations of grapevine after treatment with the fungicide fludioxonil” (J Agric Food Chem, 2008).

Legend:
Vitis vinifera [1] = assay: Inhibition of photosynthesis in Vitis vinifera cv. Pinot noir assessed as PPFD-saturated net CO2 assimilation rate at 1.2 mM measured 7 days post compound application (reference value: 8.9 +/- 1.5 umol/m2/s); type: organism-based; conditions: in vivo, 168 h, 1200 µM
Vitis vinifera [2] = assay: Inhibition of photosynthesis in Vitis vinifera cv. Pinot noir assessed as light compensation point at 30 mM measured 7 days post compound application (reference value: 22.6 +/- 3.1 umol/mol); type: organism-based; conditions: in vivo, 168 h, 30000 µM
Vitis vinifera [3] = assay: Inhibition of photosynthesis in Vitis vinifera cv. Pinot noir assessed as light compensation point at 6 mM measured 7 days post compound application (reference value: 22.6 +/- 3.1 umol/mol); type: organism-based; conditions: in vivo, 168 h, 6000 µM
Vitis vinifera [4] = assay: Inhibition of photosynthesis in Vitis vinifera cv. Pinot noir assessed as light compensation point at 1.2 mM measured 7 days post compound application (reference value: 22.6 +/- 3.1 umol/mol); type: organism-based; conditions: in vivo, 168 h, 1200 µM
Vitis vinifera [5] = assay: Inhibition of photosynthesis in Vitis vinifera cv. Pinot noir assessed as dark respiration at 30 mM measured 7 days post compound application (reference value: 1.6 +/- 0.0 umol/m2/s); type: organism-based; conditions: in vivo, 168 h, 30000 µM
Vitis vinifera [6] = assay: Inhibition of photosynthesis in Vitis vinifera cv. Pinot noir assessed as dark respiration at 6 mM measured 7 days post compound application (reference value: 1.6 +/- 0.0 umol/m2/s); type: organism-based; conditions: in vivo, 168 h, 6000 µM
Vitis vinifera [7] = assay: Inhibition of photosynthesis in Vitis vinifera cv. Pinot noir assessed as dark respiration at 1.2 mM measured 7 days post compound application (reference value: 1.6 +/- 0.0 umol/m2/s); type: organism-based; conditions: in vivo, 168 h, 1200 µM
Vitis vinifera [8] = assay: Inhibition of photosynthesis in Vitis vinifera cv. Pinot noir assessed as apparent quantum yield of CO2 fixation at 30 mM measured 7 days post compound application (reference value: 0.07 +/- 0.01 no unit) umol/m2/s); type: organism-based; conditions: in vivo, 168 h, 30000 µM
Vitis vinifera [9] = assay: Inhibition of photosynthesis in Vitis vinifera cv. Pinot noir assessed as apparent quantum yield of CO2 fixation at 6 mM measured 7 days post compound application (reference value: 0.07 +/- 0.01 no unit) umol/m2/s); type: organism-based; conditions: in vivo, 168 h, 6000 µM
Vitis vinifera [10] = assay: Inhibition of photosynthesis in Vitis vinifera cv. Pinot noir assessed as mitochondrial respiration in the light at 30 mM measured 7 days post compound application (reference value: 3.2 +/- 0.5 umol/m2/s); type: organism-based; conditions: in vivo, 168 h, 30000 µM
Vitis vinifera [11] = assay: Inhibition of photosynthesis in Vitis vinifera cv. Pinot noir assessed as mitochondrial respiration in the light at 6 mM measured 7 days post compound application (reference value: 3.2 +/- 0.5 umol/m2/s); type: organism-based; conditions: in vivo, 168 h, 6000 µM
Vitis vinifera [12] = assay: Inhibition of photosynthesis in Vitis vinifera cv. Pinot noir assessed as CO2 compensation point at 30 mM measured 7 days post compound application (reference value: 74.8 +/- 12.7 umol/mol); type: organism-based; conditions: in vivo, 168 h, 30000 µM
Vitis vinifera [13] = assay: Inhibition of photosynthesis in Vitis vinifera cv. Pinot noir assessed as CO2 compensation point at 6 mM measured 7 days post compound application (reference value: 74.8 +/- 12.7 umol/mol); type: organism-based; conditions: in vivo, 168 h, 6000 µM
Vitis vinifera [14] = assay: Inhibition of photosynthesis in Vitis vinifera cv. Pinot noir assessed as in vivo maximum rate of rubisco carboxylation at 30 mM measured 7 days post compound application (reference value: 42.8 +/- 3.2 umol/m2/s); type: organism-based; conditions: 168 h, 30000 µM
Vitis vinifera [15] = assay: Effect on maximum efficiency of PSII photochemistry after dark-adaptation in Vitis vinifera cv. Pinot noir at 1.2 to 30 mM measured 7 days post compound application; type: ADME, organism-based; conditions: in vivo, 168 h, 30000 µM
[16] = Inhibition of photosynthesis in Vitis vinifera cv. Pinot noir assessed as reduction in Hill reaction activity 6 mM measured 7 days post compound application relative to untreated control; type: organism-based; conditions: in vivo
photosystem 2 [17] = assay: Inhibition of photosynthesis in Vitis vinifera cv. Pinot noir assessed as reduction in relative quantum yield of photo system 2 at 6 mM measured 7 days post compound application relative to untreated control; type: organism-based; conditions: in vivo
photosystem 2 [18] = assay: Inhibition of photosynthesis in Vitis vinifera cv. Pinot noir assessed as reduction in relative quantum yield of photo system 2 at 30 mM measured 7 days post compound application relative to untreated control; type: organism-based; conditions: in vivo
photosystem 2 [19] = assay: Inhibition of photosynthesis in Vitis vinifera cv. Pinot noir assessed as reduction in relative quantum yield of photo system 2 at 1.2 mM measured 7 days post compound application relative to untreated control; type: organism-based; conditions: in vivo
Vitis vinifera [20] = assay: Inhibition of photosynthesis in Vitis vinifera cv. Pinot noir assessed as increase in mitochondrial respiration in the light at 30 mM measured 7 days post compound application relative to untreated control; type: organism-based; conditions: in vivo, 168 h, 30000 µM
Vitis vinifera [21] = assay: Inhibition of photosynthesis in Vitis vinifera cv. Pinot noir assessed as increase in CO2 compensation point at 30 mM measured 7 days post compound application relative to untreated control; type: organism-based; conditions: in vivo, 168 h, 30000 µM
Vitis vinifera [22] = assay: Inhibition of photosynthesis in Vitis vinifera cv. Pinot noir assessed as increase in ratio of apparent quantum yield of photo system 2 to apparent quantum yield yield of CO2 fixation at 1.2 to 30 mM measured 7 days post compound application; type: organism-based; parameters: scale not given: the % may be the effect or the level left; conditions: in vivo, 168 h, 30000 µM
[23] = Inhibition of photosynthesis in Vitis vinifera cv. Pinot noir assessed as change in light compensation point at 6 mM measured 7 days post compound application; type: organism-based; conditions: in vivo
[24] = Inhibition of photosynthesis in Vitis vinifera cv. Pinot noir assessed as reduction in dark respiration at 1.2 mM measured 7 days post compound application; type: organism-based; conditions: in vivo
[25] = Inhibition of photosynthesis in Vitis vinifera cv. Pinot noir assessed as reduction in apparent quantum yield of CO2 fixation at 1.2 to 30 mM measured 7 days post compound application; type: organism-based; conditions: in vivo
Vitis vinifera [26] = assay: Effect on stomatal conductance in Vitis vinifera cv. Pinot noir at 1.2 to 30 mM measured 7 days post compound application; type: ADME, organism-based; conditions: in vivo, 168 h, 30000 µM
Vitis vinifera [27] = assay: Toxicity in Vitis vinifera cv. Pinot noir assessed as effect on gas exchanges at 1.2 to 30 mM measured 14 days post compound application; type: organism-based; conditions: in vivo, 336 h, 30000 µM

`N#Cc1c[nH]cc1-c1cccc2c1OC(F)(F)O2` [FLUDIOXONIL] showed an Activity (Vitis vinifera [1]) of 7.7 micromol/m2/s, an Activity (Vitis vinifera [2]) of 37 umol/mol and an Activity (Vitis vinifera [3]) of 27.7 umol/mol. The Activity (Vitis vinifera [4]) was 19.8 umol/mol, the Activity (Vitis vinifera [5]) was 1.4 micromol/m2/s and the Activity (Vitis vinifera [6]) was 1.2 micromol/m2/s. It also gave an Activity (Vitis vinifera [7]) of 0.8 micromol/m2/s, an Activity (Vitis vinifera [8]) of 0.04 and an Activity (Vitis vinifera [9]) of 0.04. The Activity (Vitis vinifera [10]) was 12.6 micromol/m2/s, the Activity (Vitis vinifera [11]) was 3.6 micromol/m2/s and the Activity (Vitis vinifera [12]) was 267 umol/mol. For the same compound, the Activity (Vitis vinifera [13]) was 82.2 umol/mol, the Activity (Vitis vinifera [14]) was 46.7 micromol/m2/s and the Activity (Vitis vinifera [15]) was “Non-toxic”. It also gave an inhibition at 168 h, 6000 µM [16] of 36%, an inhibition at 168 h, 6000 µM (photosystem 2 [17]) of 7% and an inhibition at 168 h, 30000 µM (photosystem 2 [18]) of 10%. For the same compound, the inhibition at 168 h, 1200 µM (photosystem 2 [19]) was 10%, the “fold change (FC)” value (Vitis vinifera [20]) was 3.5 and the “fold change (FC)” value (Vitis vinifera [21]) was 3.3. For the same compound, the Activity (Vitis vinifera [22]) was 50%, the inhibition at 168 h, 6000 µM [23] was 20% and the inhibition at 168 h, 1200 µM [24] was 30%. The inhibition at 168 h, up to 30000 µM [25] was 30%, the Activity (Vitis vinifera [26]) was “Non-toxic” and the Activity (Vitis vinifera [27]) was “Non-toxic”.
